# Measured values taken from US9969687B2, “Compounds useful as CCR9 modulators” (Norgine B.V., priority 2013, dated 2018).
# pKi: −log10 of the molar value.
# Legend:
# CCR9 [1] = target: T1, CCR9 (Homo sapiens (Human), UniProt P51686); experiment: FLIPR calcium flux assay using hCCR9 over expressed cells (Chem1-hCCR9), TECK stimulation; format: cell-based; conditions: Chem1-hCCR9 overexpressing cells
# Experimental: Biological Activity: FLIPR Assay Using hCCR9 Over Expressed Cells
# A calcium flux assay was used to determine the ability of the compounds to interfere with the binding between CCR9 and its chemokine ligand (TECK) in Chem1-hCCR9 overexpressing cells. hCCR9 overexpressing cells were seeded (25,000 cells/well) into black Poly-D-Lysine coated clear bottom 96-well plates (BD Biosciences, Cat #356640) and incubated overnight at 37° C./5% CO2 in a humidified incubator. Media was aspirated and cells washed twice with 100 μL assay buffer (1×HBSS, 20 mM HEPES) containing 2.5 mM Probenecid. A 0.3× Fluo-4 NW calcium dye was prepared in assay buffer containing 5 mM Probenecid and stored in the dark. Each well was loaded with 100 μL of 0.3× Fluo-4 NW calcium dye and incubated at 37° C./5% CO2 for 60 minutes and then at room temperature for 30 minutes. A half-log serially diluted concentration response curve was prepared at a 3× final assay concentration for each compound (10 μM-0.1 nM final assay concentration) and 50 μL of the compound then transferred to the cells (150 μL final volume) for 60 minutes prior to stimulation (30 minutes at 37° C./5% CO2 and 30 minutes at room temperature). TECK was diluted to 4× its EC80 in assay buffer (containing 0.1% [w/v] bovine serum albumin [BSA]) and 50 μL dispensed through the fluorometric imaging plate reader (FLIPR) instrument to stimulate the cells (200 μL final volume). The increase in intracellular calcium levels was measured with the FLIPR instrument. The potency of the compound as a CCR9 antagonist was calculated as an IC50 using GraphPad Prism software (variable slope four parameter). The Ki of the compound was determined from the IC50 values using the following equation. IC50/1+(Agonist (TECK) conc. used in assay/EC50 of agonist (TECK) generated on day of experiment) Ki calculation: […]
# CCR9 [2] = target: T1, CCR9; experiment: FLIPR calcium flux assay using MOLT4 cells, TECK stimulation; format: cell-based; conditions: MOLT4 cells (human T-cell line)
# Experimental: Biological Activity: FLIPR Assay Using MOLT4 Cells
# A calcium flux assay was used to determine the ability of the compounds to interfere with the binding between CCR9 and its chemokine ligand (TECK) in MOLT4 cells (a human T-cell line). MOLT4 cells were seeded (100,000 cells/well) in corning cell culture plates (Cat #3603) in assay buffer (1×HBSS, 20 mM HEPES) containing 2.5 mM Probenecid. The plate was centrifuged at 1200 rpm for 3 minutes and incubated at 37° C./5% CO2 for 2 hours. A 0.3× Fluo-4 NW calcium dye was prepared in assay buffer containing 5 mM Probenecid and stored in the dark. Each well was loaded with 25 μl of 0.3× Fluo-4 NW calcium dye and incubated at 37° C./5% CO2 for 60 minutes and then at room temperature for 30 minutes. A half-log serially diluted concentration response curve was prepared at a 4× concentration for each (10 μM-0.1 nM final assay concentration) and 25 μL of the compound then transferred to the cells (100 μL final volume) for 60 minutes prior to stimulation (30 minutes at 37° C./5% CO2 and 30 minutes at room temperature). […] The increased in intracellular calcium levels was measured with the FLIPR instrument. The potency of the compound as CCR9 antagonist was calculated as an IC50 using GraphPad Prism software (variable slope four parameter). The Ki of the compound was determined from the IC50 values using the following equation. IC50/1+(Agonist (TECK) conc. used in assay/EC50 of agonist (TECK) generated on day of experiment) Ki calculation: […]
# T1 sequence (P51686 whole entry): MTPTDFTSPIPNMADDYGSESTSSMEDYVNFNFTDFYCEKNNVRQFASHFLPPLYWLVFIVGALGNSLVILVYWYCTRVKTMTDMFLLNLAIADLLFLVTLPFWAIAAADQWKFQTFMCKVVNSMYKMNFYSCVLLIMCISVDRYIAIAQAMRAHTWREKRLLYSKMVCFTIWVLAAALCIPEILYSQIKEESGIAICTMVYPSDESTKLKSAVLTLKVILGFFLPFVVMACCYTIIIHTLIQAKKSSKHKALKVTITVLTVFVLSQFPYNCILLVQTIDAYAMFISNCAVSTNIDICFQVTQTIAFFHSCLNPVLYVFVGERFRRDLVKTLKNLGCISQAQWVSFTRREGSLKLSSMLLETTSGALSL
pKi (CCR9 [1]),pKi (CCR9 [2]),SMILES
7.64,8.15,Cc1ccncc1N1C(=O)c2c(Cl)ccc(NS(=O)(=O)c3ccc(C(C)(C)C)cc3)c2C1=O [Compound 185]
7.05,7.82,Cc1cc[n+]([O-])cc1N1C(=O)c2c(Cl)ccc(NS(=O)(=O)c3ccc(C(C)(C)C)cc3)c2C1=O [Compound 188]
7.09,7.62,COc1cc(C#N)cc(N2C(=O)c3c(Cl)ccc(NS(=O)(=O)c4ccc(C(C)(C)C)cc4)c3C2=O)c1 [Compound 190]
7.48,7.70,CC(C)(C)c1ccc(S(=O)(=O)Nc2ccc(Cl)c3c2C(=O)N(Cc2ccccn2)C3=O)cc1 [Compound 191]
7.68,7.80,Cn1ccc(CN2C(=O)c3c(Cl)ccc(NS(=O)(=O)c4ccc(C(C)(C)C)cc4)c3C2=O)n1 [Compound 193]
7.38,7.51,CC(C)(C)c1ccc(S(=O)(=O)Nc2ccc(Cl)c3c2C(=O)N(Cc2cncc(C#N)c2)C3=O)cc1 [Compound 195]
7.77,8.10,CC(C)(C)c1ccc(S(=O)(=O)Nc2ccc(Cl)c3c2C(=O)N(Cc2ccncc2)C3=O)cc1 [Compound 201]
7.31,7.66,COc1cccnc1N1C(=O)c2c(Cl)ccc(NS(=O)(=O)c3ccc(C(C)(C)C)cc3)c2C1=O [Compound 202]
7.44,7.52,CC(C)(C)c1ccc(S(=O)(=O)Nc2ccc(Cl)c3c2C(=O)N(c2cccc(C#N)n2)C3=O)cc1 [Compound 207]
7.80,7.62,Cc1ccncc1CN1C(=O)c2c(Cl)ccc(NS(=O)(=O)c3ccc(C(C)(C)C)cc3)c2C1=O [Compound 208]
7.11,7.52,CC(C)(C)c1ccc(S(=O)(=O)Nc2ccc(Cl)c3c2C(=O)N(Cc2cc[n+]([O-])cc2)C3=O)cc1 [Compound 209]
7.59,8.15,CC(C)(C)c1ccc(S(=O)(=O)Nc2ccc(Cl)c3c2C(=O)N(c2cccnc2F)C3=O)cc1 [Compound 218]
7.52,8.00,CC(C)(C)c1ccc(S(=O)(=O)Nc2ccc(Cl)c3c2C(=O)N(c2ccc(F)cn2)C3=O)cc1 [Compound 219]
7.92,8.22,CC(C)(C)c1ccc(S(=O)(=O)Nc2ccc(Cl)c3c2C(=O)N(c2ccccn2)C3=O)cc1 [Compound 222]
8.22,8.30,Cc1ccc(N2C(=O)c3c(Cl)ccc(NS(=O)(=O)c4ccc(C(C)(C)C)cc4)c3C2=O)c(C)n1 [Compound 224]
7.64,7.68,Cc1ccc(N2C(=O)c3c(Cl)ccc(NS(=O)(=O)c4ccc(C(C)(C)C)cc4)c3C2=O)nc1 [Compound 226]
8.22,8.30,Cc1cccc(N2C(=O)c3c(Cl)ccc(NS(=O)(=O)c4ccc(C(C)(C)C)cc4)c3C2=O)n1 [Compound 228]
7.05,7.30,COc1cc(CN2C(=O)c3c(Cl)ccc(NS(=O)(=O)c4ccc(C(C)(C)C)cc4)c3C2=O)c[n+]([O-])c1 [Compound 231]
7.68,7.72,Cc1cccc(N2C(=O)c3c(Cl)ccc(NS(=O)(=O)c4ccc(C(C)(C)C)cc4)c3C2=O)[n+]1[O-] [Compound 233]
7.37,7.35,Cn1nnc(N2C(=O)c3c(Cl)ccc(NS(=O)(=O)c4ccc(C(C)(C)C)cc4)c3C2=O)n1 [Compound 234]
7.64,7.89,CC(C)(C)c1ccc(S(=O)(=O)Nc2ccc(Cl)c3c2C(=O)N(Cc2ncccc2F)C3=O)cc1 [Compound 239]

# Continued, compound first:
SMILES,pKi (CCR9 [1]),pKi (CCR9 [2])
COc1cc[n+]([O-])cc1N1C(=O)c2c(Cl)ccc(NS(=O)(=O)c3ccc(C(C)(C)C)cc3)c2C1=O [Compound 189],7.47,8.10
Cn1cncc1N1C(=O)c2c(Cl)ccc(NS(=O)(=O)c3ccc(C(C)(C)C)cc3)c2C1=O [Compound 192],7.92,8.40
COc1c(N2C(=O)c3c(Cl)ccc(NS(=O)(=O)c4ccc(C(C)(C)C)cc4)c3C2=O)ccc[n+]1[O-] [Compound 194],8.22,8.40
CC(Cc1cccnc1)N1C(=O)c2c(Cl)ccc(NS(=O)(=O)c3ccc(C(C)(C)C)cc3)c2C1=O (centres unmarked) [Compound 196],6.99,7.34
CCOc1cc(N2C(=O)c3c(Cl)ccc(NS(=O)(=O)c4ccc(C(C)(C)C)cc4)c3C2=O)c[n+]([O-])c1 [Compound 197],7.40,7.68
CC(C)(C)c1ccc(S(=O)(=O)Nc2ccc(Cl)c3c2C(=O)N(Cc2cccc[n+]2[O-])C3=O)cc1 [Compound 199],8.00,8.22
CC(C)(C)c1ccc(S(=O)(=O)Nc2ccc(Cl)c3c2C(=O)N(c2cc(C#N)ccn2)C3=O)cc1 [Compound 200],7.04,7.35
CC(C)(C)c1ccc(S(=O)(=O)Nc2ccc(Cl)c3c2C(=O)N(c2cccnn2)C3=O)cc1 [Compound 203],7.23,7.42
CC(C)(C)c1ccc(S(=O)(=O)Nc2ccc(Cl)c3c2C(=O)N(Cc2ncccn2)C3=O)cc1 [Compound 204],7.52,8.15
COc1ccc[n+]([O-])c1N1C(=O)c2c(Cl)ccc(NS(=O)(=O)c3ccc(C(C)(C)C)cc3)c2C1=O [Compound 211],7.21,7.48
COc1cncc(CN2C(=O)c3c(Cl)ccc(NS(=O)(=O)c4ccc(C(C)(C)C)cc4)c3C2=O)c1 [Compound 212],7.22,7.23
Cc1cc[n+]([O-])cc1CN1C(=O)c2c(Cl)ccc(NS(=O)(=O)c3ccc(C(C)(C)C)cc3)c2C1=O [Compound 213],7.64,7.92
Cc1cc(N2C(=O)c3c(Cl)ccc(NS(=O)(=O)c4ccc(C(C)(C)C)cc4)c3C2=O)c[n+]([O-])c1 [Compound 214],7.28,7.70
Cc1ccnc(N2C(=O)c3c(Cl)ccc(NS(=O)(=O)c4ccc(C(C)(C)C)cc4)c3C2=O)n1 [Compound 216],7.31,7.64
Cc1cnc(N2C(=O)c3c(Cl)ccc(NS(=O)(=O)c4ccc(C(C)(C)C)cc4)c3C2=O)s1 [Compound 217],7.41,7.46
Cc1cncc(N2C(=O)c3c(Cl)ccc(NS(=O)(=O)c4ccc(C(C)(C)C)cc4)c3C2=O)n1 [Compound 220],7.38,7.92
Cc1ccnc(N2C(=O)c3c(Cl)ccc(NS(=O)(=O)c4ccc(C(C)(C)C)cc4)c3C2=O)c1 [Compound 225],7.29,7.27
Cc1ccc(N2C(=O)c3c(Cl)ccc(NS(=O)(=O)c4ccc(C(C)(C)C)cc4)c3C2=O)c(C)[n+]1[O-] [Compound 227],7.49,7.85
Cc1ccc(N2C(=O)c3c(Cl)ccc(NS(=O)(=O)c4ccc(C(C)(C)C)cc4)c3C2=O)[n+]([O-])c1 [Compound 229],7.20,7.34
COc1ccc(N2C(=O)c3c(Cl)ccc(NS(=O)(=O)c4ccc(C(C)(C)C)cc4)c3C2=O)c(OC)n1 [Compound 230],8.22,8.10
CC(C)(C)c1ccc(S(=O)(=O)Nc2ccc(Cl)c3c2C(=O)N(c2ccsc2C#N)C3=O)cc1 [Compound 232],8.52,8.15
COc1ccc(CN2C(=O)c3c(Cl)ccc(NS(=O)(=O)c4ccc(C(C)(C)C)cc4)c3C2=O)cn1 [Compound 235],7.03,6.91
Cc1ccc(N2C(=O)c3c(Cl)ccc(NS(=O)(=O)c4ccc(C(C)(C)C)cc4)c3C2=O)nn1 [Compound 236],7.49,7.29
COc1nccc(C)c1N1C(=O)c2c(Cl)ccc(NS(=O)(=O)c3ccc(C(C)(C)C)cc3)c2C1=O [Compound 237],8.05,7.55
COc1ccc(N2C(=O)c3c(Cl)ccc(NS(=O)(=O)c4ccc(C(C)(C)C)cc4)c3C2=O)c(C)n1 [Compound 238],7.89,7.85
